Test results published in publication PMC5084024, “The Identification of Biochanin A as a Potent and Selective β-Site App-Cleaving Enzyme 1 (Bace1) Inhibitor” (Nutrients, 2016).

Target: T1, BACE1 (β-site APP-cleaving enzyme 1) (Homo sapiens, UniProt P56817)
T1 construct: human recombinant BACE1, baculovirus-expressed
Test: FRET enzyme assay with recombinant BACE1; Dixon and Lineweaver-Burk kinetics (Ki […])
Type: biochemical

T1 sequence (P56817 46-457): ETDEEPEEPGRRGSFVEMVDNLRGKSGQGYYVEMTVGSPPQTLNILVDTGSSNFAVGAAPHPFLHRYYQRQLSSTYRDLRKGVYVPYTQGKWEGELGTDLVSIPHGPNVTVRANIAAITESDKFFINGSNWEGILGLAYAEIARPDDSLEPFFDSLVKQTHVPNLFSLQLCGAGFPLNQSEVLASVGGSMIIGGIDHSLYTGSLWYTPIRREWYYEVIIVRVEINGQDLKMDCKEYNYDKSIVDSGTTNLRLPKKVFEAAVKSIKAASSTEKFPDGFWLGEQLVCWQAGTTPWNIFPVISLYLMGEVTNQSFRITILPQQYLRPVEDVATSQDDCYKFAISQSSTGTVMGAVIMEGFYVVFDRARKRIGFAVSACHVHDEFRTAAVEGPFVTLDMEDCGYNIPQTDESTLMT

In the case of `COc1ccc(-c2coc3cc(O)cc(O)c3c2=O)cc1` [Biochanin A, 5,7-dihydroxy-3-(4-methoxyphenyl)chromen-4-one], the IC50 is reported as 28 µM.
